Test results: US8778941B2, “TRPM8 antagonists and their use in treatments” (AMGEN Inc., priority 2011, dated 2014)
pIC50: −log10 of the molar value.

Target: T1, human TRPM8 (Homo sapiens, UniProt Q7Z2W7)
T1 construct: expressed in transfected cells; host or cells: Chinese hamster ovary (CHO) cells, T-REx tetracycline-inducible expression system (Invitrogen), co-transfected with pcDNA3.1 jellyfish aequorin
Test: Luminescence readout assay for measuring intracellular calcium (aequorin), hTRPM8 antagonism
Type: cell-based
Conditions: CHO cell line expressing human TRPM8 and aequorin; activation by icilin, L-menthol or cold buffer (table does not say which)

T1 sequence (Q7Z2W7 whole entry): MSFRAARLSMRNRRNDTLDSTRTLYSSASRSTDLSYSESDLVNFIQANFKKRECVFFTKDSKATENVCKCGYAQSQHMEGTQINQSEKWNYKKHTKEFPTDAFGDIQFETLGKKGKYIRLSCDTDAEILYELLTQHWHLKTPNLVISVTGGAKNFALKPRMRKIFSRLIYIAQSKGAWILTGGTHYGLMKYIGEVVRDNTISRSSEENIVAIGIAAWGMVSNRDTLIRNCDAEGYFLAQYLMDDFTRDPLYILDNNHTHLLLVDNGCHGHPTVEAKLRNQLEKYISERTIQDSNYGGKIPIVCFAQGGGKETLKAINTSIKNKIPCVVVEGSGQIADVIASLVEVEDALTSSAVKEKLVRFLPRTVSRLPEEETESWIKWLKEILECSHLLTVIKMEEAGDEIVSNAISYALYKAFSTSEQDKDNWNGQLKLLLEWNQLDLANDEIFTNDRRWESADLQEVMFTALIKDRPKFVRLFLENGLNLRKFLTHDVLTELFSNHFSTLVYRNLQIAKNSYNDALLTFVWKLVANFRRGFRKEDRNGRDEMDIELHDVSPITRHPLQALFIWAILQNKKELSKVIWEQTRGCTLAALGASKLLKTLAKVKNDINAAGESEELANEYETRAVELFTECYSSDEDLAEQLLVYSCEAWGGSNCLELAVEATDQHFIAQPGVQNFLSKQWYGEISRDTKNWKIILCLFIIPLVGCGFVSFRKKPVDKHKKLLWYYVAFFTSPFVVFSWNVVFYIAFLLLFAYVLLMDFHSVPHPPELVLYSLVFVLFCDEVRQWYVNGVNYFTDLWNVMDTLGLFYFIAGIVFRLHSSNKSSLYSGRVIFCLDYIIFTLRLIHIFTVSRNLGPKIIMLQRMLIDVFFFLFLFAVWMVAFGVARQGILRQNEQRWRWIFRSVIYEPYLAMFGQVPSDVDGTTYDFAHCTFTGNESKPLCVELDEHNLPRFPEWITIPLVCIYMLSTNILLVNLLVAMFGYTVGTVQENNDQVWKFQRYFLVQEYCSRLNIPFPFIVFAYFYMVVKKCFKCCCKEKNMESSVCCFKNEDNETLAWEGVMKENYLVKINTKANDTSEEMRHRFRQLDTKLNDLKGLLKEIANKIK

Compared with `CCOc1cccc(NC(=O)N[C@@H](c2ccc(C(F)(F)F)cc2)c2ncccc2C(F)(F)F)c1` [Example 126, (S)-1-(3-ethoxyphenyl)-3-((4-(trifluoro-methyl)-phenyl)(3-(trifluoro-methyl)-pyridin-2-yl)-methyl)urea (2,2,2-trifluoro-acetate)], `O=C(Nc1cnc2ccccc2c1)N[C@@H](c1ccc(C(F)(F)F)cc1)c1ncccc1C(F)(F)F` [Example 59, (S)-1-(quinolin-3-yl)-3-((4-(trifluoro-methyl)-phenyl)(3-(trifluoro-methyl)-pyridin-2-yl)-methyl)urea] is 0.69 log units higher in pIC50: 5.50 for the first, 6.19 for the second. The second is the more potent here.

Compared with `O=C(NCc1ccc(F)cc1)N[C@@H](c1ccc(C(F)(F)F)cc1)c1ncccc1C(F)(F)F` [Example 144, (S)-1-(4-fluorobenzyl)-3-((4-(trifluoro-methyl)-phenyl)(3-(trifluoro-methyl)-pyridin-2-yl)-methyl)urea (2,2,2-trifluoro-acetate)], `O=C(NCc1ccccc1Cl)N[C@@H](c1ccc(C(F)(F)F)cc1)c1ncccc1C(F)(F)F` [Example 73, (S)-1-(2-chlorobenzyl)-3-((4-(trifluoro-methyl)-phenyl)(3-(trifluoro-methyl)-pyridin-2-yl)-methyl)urea (2,2,2-trifluoro-acetate)] is 0.21 log units higher in pIC50: 6.27 for the first, 6.48 for the second. The second is the more potent here.

Compared with `C[C@H](NC(=O)N[C@@H](c1ccc(C(F)(F)F)cc1)c1ccccc1Br)C(F)(F)F` [Example 154, 1-((S)-(2-bromophenyl) (4-(trifluoro-methyl)-phenyl)-methyl)-3-((S)-1,1,1-trifluoro-propan-2-yl)-urea], `O=C(Nc1cncnc1)N[C@@H](c1ccc(C(F)(F)F)cc1)c1ncccc1C(F)(F)F` [Example 57, (S)-1-(pyrimidin-5-yl)-3-((4-(trifluoro-methyl)-phenyl)(3-(trifluoro-methyl)-pyridin-2-yl)-methyl)urea] is 0.73 log units higher in pIC50: 6.05 for the first, 6.78 for the second. The second is the more potent here.

Going from `O=C1CCC(OC(=O)N[C@@H](c2ccc(OC(F)(F)F)c(F)c2)c2ncccc2F)CN1` (stereo partly drawn) [Example 178, 6-Oxopiperidin-3-yl((S)-(3-fluoro-4-(trifluoromethoxy)phenyl)(3-fluoropyridin-2-yl)methyl)carbamate] to `O=C(Nc1ccc[nH]c1=O)N[C@@H](c1ccc(C(F)(F)F)cc1)c1ncccc1F` [Example 163, (S)-1-((3-fluoropyridin-2-yl)(4-(trifluoro-methyl)-phenyl)-methyl)-3-(2-oxo-1,2-dihydropyridin-3-yl)urea], the pIC50 rises from 5.69 to 7.12 (1.43 log units).

Compared with `O=C(NCc1ccc(Cl)cc1Cl)N[C@@H](c1ccc(C(F)(F)F)cc1)c1ncccc1C(F)(F)F` [Example 135, (S)-1-(2,4-dichlorobenzyl)-3-((4-(trifluoro-methyl)-phenyl)(3-(trifluoro-methyl)-pyridin-2-yl)-methyl)urea (2,2,2-trifluoro-acetate)], `COc1ccc(NC(=O)N[C@@H](c2ccc(C(F)(F)F)cc2)c2ncccc2C(F)(F)F)cc1OC` [Example 74, (S)-1-(3,4-dimethoxy-phenyl)-3-((4-(trifluoro-methyl)-phenyl)(3-(trifluoro-methyl)-pyridin-2-yl)-methyl)urea (2,2,2-trifluoro-acetate)] is 0.87 log units higher in pIC50: 6.08 for the first, 6.95 for the second. The second is the more potent here.

First: Cc1cccc([C@H](NC(=O)Nc2cccnc2)c2ncccc2C(F)(F)F)c1 [Example 7, (S)-1-((3-methylphenyl) (3-(trifluoro-methyl)-pyridin-2-yl)-methyl)-3-(pyridin-3-yl)-urea]
Second: O=C(Nc1cccnc1)N[C@@H](c1ccc(C(F)(F)F)c(F)c1)c1ccccc1C(F)(F)F [Example 121, (S)-1-((3-fluoro-4-(trifluoro-methyl)-phenyl)(2-(trifluoro-methyl)-phenyl)-methyl)-3-(pyridin-3-yl)-urea]
The pIC50 of the first is 0.94 log units lower: 6.14 for the first, 7.08 for the second. The second is the more potent here.

Work on `COc1ncc(NC(=O)N[C@@H](c2ccc(C(F)(F)F)cc2)c2ncccc2F)cn1` [Example 160, (S)-1-((3-fluoropyridin-2-yl)(4-(trifluoro-methyl)-phenyl)-methyl)-3-(2-methoxy-pyrimidin-5-yl)urea] yielded a pIC50 of 5.78.
